The target in one assay is T1, PIK3CA (Homo sapiens, UniProt P42336).
T1 construct: endogenous in cells; host or cells: Jurkat cell lysate
The assay is described as follows: In vitro ELISA target engagement assay for PIK3CA in Jurkat cellular lysate (competition with PIK3CA Biotin Probe). The format is binding. As to conditions: 1 hour at rt, then 500 nM PIK3CA Biotin Probe, read-out: Elisa Target Engagement Assay (TE50). The essentials: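 Competition format in Jurkat lysate: compound (serial dilutions, top 200 μM) for 1 h at rt, then 500 nM final biotinylated PIK3CA probe for 1 h at rt. Sandwich ELISA with capture antibody and Neutravidin-HRP luminescence read-out measured probe-labelled PIK3CA, giving TE50.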

Another assay has as its target T2, PIK3CA_C242 (Homo sapiens, UniProt P42336).
T2 construct: endogenous in cells; host or cells: Jurkat cell lysate
The assay is described as follows: Proteomic TE50 (IA-DTB / TMT mass spectrometry) in Jurkat cell lysate. It is filed as binding. The conditions noted are these: 1 hour at rt, 7-point dose response. The essentials: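 Cysteine engagement was read by targeted TMT MS3 of the IA-DTB-labelled, streptavidin-enriched C242 tryptic peptide. Beforehand, Jurkat lysate was exposed to a 7-point 1:5 compound series for 1 h at rt, then to 200 μM IA-DTB for 1 h. Reporter S/N curves gave TE50.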

T2 sequence (P42336 whole entry): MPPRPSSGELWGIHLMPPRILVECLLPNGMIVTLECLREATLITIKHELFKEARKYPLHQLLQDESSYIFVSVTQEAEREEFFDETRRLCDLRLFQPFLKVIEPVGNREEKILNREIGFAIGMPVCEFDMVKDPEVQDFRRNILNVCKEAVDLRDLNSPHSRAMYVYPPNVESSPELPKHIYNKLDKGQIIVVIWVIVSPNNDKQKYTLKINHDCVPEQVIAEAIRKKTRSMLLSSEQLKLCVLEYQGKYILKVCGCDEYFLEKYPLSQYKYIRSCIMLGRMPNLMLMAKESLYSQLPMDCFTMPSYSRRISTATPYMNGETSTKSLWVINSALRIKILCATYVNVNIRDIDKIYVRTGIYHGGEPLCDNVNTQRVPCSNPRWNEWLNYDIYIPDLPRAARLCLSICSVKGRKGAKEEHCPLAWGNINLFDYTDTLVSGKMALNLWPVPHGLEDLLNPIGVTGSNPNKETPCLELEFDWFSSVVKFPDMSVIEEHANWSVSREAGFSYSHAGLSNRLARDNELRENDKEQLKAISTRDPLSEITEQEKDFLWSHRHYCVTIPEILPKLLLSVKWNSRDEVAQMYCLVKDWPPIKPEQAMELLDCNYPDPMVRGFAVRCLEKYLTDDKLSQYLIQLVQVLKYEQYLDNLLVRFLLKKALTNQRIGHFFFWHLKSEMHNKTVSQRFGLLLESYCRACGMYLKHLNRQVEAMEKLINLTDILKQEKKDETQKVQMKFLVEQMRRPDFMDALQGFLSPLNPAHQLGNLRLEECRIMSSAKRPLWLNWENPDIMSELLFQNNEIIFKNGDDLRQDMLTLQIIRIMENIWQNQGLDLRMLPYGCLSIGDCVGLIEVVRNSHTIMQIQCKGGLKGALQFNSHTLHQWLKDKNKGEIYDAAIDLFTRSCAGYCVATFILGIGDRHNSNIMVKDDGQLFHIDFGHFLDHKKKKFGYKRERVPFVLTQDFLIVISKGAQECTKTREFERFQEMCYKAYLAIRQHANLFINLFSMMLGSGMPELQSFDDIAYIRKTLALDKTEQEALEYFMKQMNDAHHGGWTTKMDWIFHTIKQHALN
T2 sequence (P27986 whole entry partner): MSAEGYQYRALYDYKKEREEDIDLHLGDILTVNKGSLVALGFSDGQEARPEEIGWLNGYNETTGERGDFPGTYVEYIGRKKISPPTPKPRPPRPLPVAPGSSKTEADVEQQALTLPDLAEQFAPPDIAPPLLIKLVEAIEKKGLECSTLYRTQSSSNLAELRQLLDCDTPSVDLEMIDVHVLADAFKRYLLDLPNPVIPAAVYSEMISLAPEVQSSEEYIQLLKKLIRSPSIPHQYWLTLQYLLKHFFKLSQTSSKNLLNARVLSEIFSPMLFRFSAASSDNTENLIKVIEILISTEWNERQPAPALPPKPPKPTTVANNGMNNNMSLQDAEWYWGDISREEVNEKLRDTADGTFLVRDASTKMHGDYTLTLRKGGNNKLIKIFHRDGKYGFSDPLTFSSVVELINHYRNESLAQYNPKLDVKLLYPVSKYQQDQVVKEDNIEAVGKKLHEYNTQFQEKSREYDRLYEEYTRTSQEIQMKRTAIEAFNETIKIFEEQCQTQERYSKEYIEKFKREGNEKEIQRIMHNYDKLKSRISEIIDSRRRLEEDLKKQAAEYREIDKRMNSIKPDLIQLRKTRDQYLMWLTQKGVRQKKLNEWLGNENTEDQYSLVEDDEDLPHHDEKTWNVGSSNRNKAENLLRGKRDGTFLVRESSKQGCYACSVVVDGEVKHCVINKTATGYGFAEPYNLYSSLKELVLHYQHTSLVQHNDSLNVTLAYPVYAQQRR
T1 sequence (P42336 whole entry): as the sequence (P42336 whole entry) above
T1 sequence (P27986 whole entry partner): as the sequence (P27986 whole entry partner) above

On to `COc1cccc(-c2cc(Cl)ccc2S(=O)(=O)N2CCC(F)(C(=O)N[C@@H](C)/C=C\S(C)(=O)=O)CC2)c1` [Compound 1, (S,Z)-1-((5-chloro-3′-methoxy-[1,1′-biphenyl]-2-yl)sulfonyl)-4-fluoro-N-(4-(methylsulfonyl)but-3-en-2-yl)piperidine-4-carboxamide], for which the figures for the IC50 at PIK3CA and against PIK3CA_C242 were 110 nM and 246 nM, respectively.
Turning to `C[C@H](/C=C\S(C)(=O)=O)NC(=O)C1(F)CCN(S(=O)(=O)c2cn(C)c(=O)cc2-c2ccccc2Cl)CC1` [Compound 274, (R,Z)-1-((4-(2-chlorophenyl)-1-methyl-6-oxo-1,6-dihydropyridin-3-yl)sulfonyl)-4-fluoro-N-(4-(methylsulfonyl)but-3-en-2-yl)piperidine-4-carboxamide], the IC50 on PIK3CA is 1100 nM; against PIK3CA_C242, 570 nM.
As to `C[C@@H](/C=C\S(C)(=O)=O)NC(=O)C1(F)CCN(S(=O)(=O)c2ccc(Cl)cc2-c2cccc(OCc3ccccc3Cl)c2)CC1` [Compound 265, (S,Z)-1-((5-chloro-3′-((2-chlorobenzyl)oxy)-[1,1′-biphenyl]-2-yl)sulfonyl)-4-fluoro-N-(4-(methylsulfonyl)but-3-en-2-yl)piperidine-4-carboxamide], the IC50 on PIK3CA turned out to be 330 nM; against PIK3CA_C242, 390 nM.
The matching figures for `C[C@H](/C=C\S(C)(=O)=O)NC(=O)C1(F)CCN(S(=O)(=O)c2ccc(N3CCCC3)cc2-c2ccc(F)cc2Cl)CC1` [Compound 123, (R,Z)-1-((2′-chloro-4′-fluoro-5-(pyrrolidin-1-yl)-[1,1′-biphenyl]-2-yl)sulfonyl)-4-fluoro-N-(4-(methylsulfonyl)but-3-en-2-yl)piperidine-4-carboxamide]: 820 nM and 63 nM.
The matching figures for `CC[C@@H](/C=C\S(C)(=O)=O)NC(=O)C1(F)CCN(S(=O)(=O)c2ccc(Cl)cc2-c2cccc(OC)c2)CC1` [Compound 83, (S,Z)-1-((5-chloro-3′-methoxy-[1,1′-biphenyl]-2-yl)sulfonyl)-4-fluoro-N-(1-(methylsulfonyl)pent-1-en-3-yl)piperidine-4-carboxamide]: 520 nM and 540 nM.
In the case of `COc1cc(-c2ccccc2C)c(S(=O)(=O)N2CCC(F)(C(=O)N[C@@H](C)/C=C\S(C)(=O)=O)CC2)cn1` [Compound 190, (S,Z)-4-fluoro-1-((6-methoxy-4-(o-tolyl)pyridin-3-yl)sulfonyl)-N-(4-(methylsulfonyl)but-3-en-2-yl)piperidine-4-carboxamide], the figures for the IC50 on PIK3CA and at PIK3CA_C242 were 110 nM and 61 nM, respectively.
In the case of `C[C@@H](/C=C\S(C)(=O)=O)NC(=O)C1(F)CCN(S(=O)(=O)c2ccc(Cl)cc2-c2cccc(OCc3cccnc3)c2)CC1` [Compound 260, (S,Z)-1-((5-chloro-3′-(pyridin-3-ylmethoxy)-[1,1′-biphenyl]-2-yl)sulfonyl)-4-fluoro-N-(4-(methylsulfonyl)but-3-en-2-yl)piperidine-4-carboxamide], the IC50 on PIK3CA came out at 150 nM; against PIK3CA_C242, 210 nM.
The matching figures for `C[C@@H](/C=C\S(C)(=O)=O)NC(=O)C1(F)CCN(S(=O)(=O)c2ccc(Cl)cc2-c2cccc(CCO)c2)CC1` [Compound 220, (S,Z)-1-((5-chloro-3′-(2-hydroxyethyl)-[1,1′-biphenyl]-2-yl)sulfonyl)-4-fluoro-N-(4-(methylsulfonyl)but-3-en-2-yl)piperidine-4-carboxamide]: 920 nM and 1530 nM.
Take `CCCCCOc1cccc(-c2cc(Cl)ccc2S(=O)(=O)N2CCC(F)(C(=O)N[C@@H](C)/C=C\S(C)(=O)=O)CC2)c1` [Compound 262, (S,Z)-1-((5-chloro-3′-(pentyloxy)-[1,1′-biphenyl]-2-yl)sulfonyl)-4-fluoro-N-(4-(methylsulfonyl)but-3-en-2-yl)piperidine-4-carboxamide]: the IC50 on PIK3CA turned out to be 780 nM; against PIK3CA_C242, 430 nM.
The matching figures for `N#C/C=C/CNC(=O)C1(F)CCN(S(=O)(=O)c2ccc(Br)cc2-c2ccccc2Cl)CC1` [Compound 68, (E)-1-((5-bromo-2′-chloro-[1,1′-biphenyl]-2-yl)sulfonyl)-N-(3-cyanoallyl)-4-fluoropiperidine-4-carboxamide]: 465 nM and 330 nM.
On to `N#C/C=C\CNC(=O)C1(F)CCN(S(=O)(=O)c2ccc(Br)cc2-c2ccccc2Cl)CC1` [Compound 70, (Z)-1-((5-bromo-2′-chloro-[1,1′-biphenyl]-2-yl)sulfonyl)-N-(3-cyanoallyl)-4-fluoropiperidine-4-carboxamide], for which the IC50 was 95 nM at PIK3CA and 70 nM on PIK3CA_C242.
The matching figures for `C[C@H](/C=C\S(C)(=O)=O)NC(=O)C1(F)CCN(S(=O)(=O)c2ccc(N3CCOCC3)cc2-c2ccccc2Cl)CC1` [Compound 121, (R,Z)-1-((2′-chloro-5-morpholino-[1,1′-biphenyl]-2-yl)sulfonyl)-4-fluoro-N-(4-(methylsulfonyl)but-3-en-2-yl)piperidine-4-carboxamide]: 1000 nM and 880 nM.
Consider `CCOc1cccc(-c2cc(Cl)ccc2S(=O)(=O)N2CCC(F)(C(=O)N[C@@H](C)/C=C\S(C)(=O)=O)CC2)c1` [Compound 10, (S,Z)-1-((5-chloro-3′-ethoxy-[1,1′-biphenyl]-2-yl)sulfonyl)-4-fluoro-N-(4-(methylsulfonyl)but-3-en-2-yl)piperidine-4-carboxamide], for which the IC50 at PIK3CA stood at 320 nM; against PIK3CA_C242, 275 nM.
For `C[C@@H](/C=C\S(C)(=O)=O)NC(=O)C1(F)CCN(S(=O)(=O)c2ccc(Cl)cc2-c2cccc(OCc3ccccn3)c2)CC1` [Compound 269, (S,Z)-1-((5-chloro-3′-(pyridin-2-ylmethoxy)-[1,1′-biphenyl]-2-yl)sulfonyl)-4-fluoro-N-(4-(methylsulfonyl)but-3-en-2-yl)piperidine-4-carboxamide] the same measures were 90 nM and 63 nM.
The matching figures for `COc1cc(-c2ccccc2Cl)c(S(=O)(=O)N2CCC(F)(C(=O)N[C@H](C)/C=C\S(C)(=O)=O)CC2)cc1Cl` [Compound 29, (R,Z)-1-((2′,4-dichloro-5-methoxy-[1,1′-biphenyl]-2-yl)sulfonyl)-4-fluoro-N-(4-(methylsulfonyl)but-3-en-2-yl)piperidine-4-carboxamide]: 570 nM and 390 nM.
Take `COc1cccc(-c2cc(OC)ccc2S(=O)(=O)N2CCC(F)(C(=O)N[C@@H](C)/C=C\S(C)(=O)=O)CC2)c1` [Compound 5, (S,Z)-1-((3′,5-dimethoxy-[1,1′-biphenyl]-2-yl)sulfonyl)-4-fluoro-N-(4-(methylsulfonyl)but-3-en-2-yl)piperidine-4-carboxamide]: the IC50 on PIK3CA was found to be 200 nM; on PIK3CA_C242, 187 nM.
The matching figures for `C[C@H](/C=C\S(C)(=O)=O)NC(=O)C1(F)CCN(S(=O)(=O)c2ccc(C3COC3)cc2-c2ccccc2Cl)CC1` [Compound 132, (R,Z)-1-((2′-chloro-5-(oxetan-3-yl)-[1,1′-biphenyl]-2-yl)sulfonyl)-4-fluoro-N-(4-(methylsulfonyl)but-3-en-2-yl)piperidine-4-carboxamide]: 524 nM and 468 nM.
Regarding `COc1ccc(S(=O)(=O)N2CCC(F)(C(=O)N[C@@H](C)/C=C\S(C)(=O)=O)CC2)c(-c2cccc(Cl)c2)c1` [Compound 7, (S,Z)-1-((3′-chloro-5-methoxy-[1,1′-biphenyl]-2-yl)sulfonyl)-4-fluoro-N-(4-(methylsulfonyl)but-3-en-2-yl)piperidine-4-carboxamide], the IC50 at PIK3CA stood at 90 nM; against PIK3CA_C242, 107 nM.
For `COc1ccc(S(=O)(=O)N2CCC(F)(C(=O)N[C@H](C)/C=C\S(C)(=O)=O)CC2)c(-c2ccccc2Cl)c1Cl` [Compound 32, 1-((2′,6-dichloro-5-methoxy-[1,1′-biphenyl]-2-yl)sulfonyl)-4-fluoro-N-((R,Z)-4-(methylsulfonyl)but-3-en-2-yl)piperidine-4-carboxamide] the same measures were 930 nM and 820 nM.
The matching figures for `CCc1ccc(S(=O)(=O)N2CCC(F)(C(=O)N[C@H](C)/C=C\S(C)(=O)=O)CC2)c(-c2ccccc2Cl)c1` [Compound 111, (R,Z)-1-((2′-chloro-5-ethyl-[1,1′-biphenyl]-2-yl)sulfonyl)-4-fluoro-N-(4-(methylsulfonyl)but-3-en-2-yl)piperidine-4-carboxamide]: 320 nM and 210 nM.
Consider `C[C@H](/C=C\S(C)(=O)=O)NC(=O)C1(F)CCN(S(=O)(=O)c2ccc(N(C)C)cc2-c2ccccc2Cl)CC1` [Compound 92, (R,Z)-1-((2′-chloro-5-(dimethylamino)-[1,1′-biphenyl]-2-yl)sulfonyl)-4-fluoro-N-(4-(methylsulfonyl)but-3-en-2-yl)piperidine-4-carboxamide], for which the IC50 at PIK3CA amounted to 130 nM; against PIK3CA_C242, 139 nM.
On to `C[C@H](/C=C\S(C)(=O)=O)NC(=O)C1(F)CCN(S(=O)(=O)c2cnc(Cl)cc2-c2ccccc2Cl)CC1` [Compound 231, (R,Z)-1-((6-chloro-4-(2-chlorophenyl)pyridin-3-yl)sulfonyl)-4-fluoro-N-(4-(methylsulfonyl)but-3-en-2-yl)piperidine-4-carboxamide], for which the IC50 at PIK3CA was 130 nM; at PIK3CA_C242, 114 nM.
Take `CCCCOc1cccc(-c2cc(Cl)ccc2S(=O)(=O)N2CCC(F)(C(=O)N[C@@H](C)/C=C\S(C)(=O)=O)CC2)c1` [Compound 13, (S,Z)-1-((3′-butoxy-5-chloro-[1,1′-biphenyl]-2-yl)sulfonyl)-4-fluoro-N-(4-(methylsulfonyl)but-3-en-2-yl)piperidine-4-carboxamide]: the IC50 came to 480 nM on PIK3CA and 340 nM on PIK3CA_C242.

For the origin of these results see patent US20250026721A1, “COMPOUNDS AND METHODS FOR MODULATING RAS-PI3K” (Vividion Therapeutics, Inc., priority 2023, published 2025).
